# From publication PMC5916850 (Bioorganic & medicinal chemistry letters, 2018)
# Target: GRK5 (Homo sapiens, UniProt P34947)
# Experiment: GRK phosphorylation assay, GRK5
# Settings: average of three separate experiments run in duplicate; error = standard error of the mean
# Sequence of GRK5 (P34947 whole entry, species assumed): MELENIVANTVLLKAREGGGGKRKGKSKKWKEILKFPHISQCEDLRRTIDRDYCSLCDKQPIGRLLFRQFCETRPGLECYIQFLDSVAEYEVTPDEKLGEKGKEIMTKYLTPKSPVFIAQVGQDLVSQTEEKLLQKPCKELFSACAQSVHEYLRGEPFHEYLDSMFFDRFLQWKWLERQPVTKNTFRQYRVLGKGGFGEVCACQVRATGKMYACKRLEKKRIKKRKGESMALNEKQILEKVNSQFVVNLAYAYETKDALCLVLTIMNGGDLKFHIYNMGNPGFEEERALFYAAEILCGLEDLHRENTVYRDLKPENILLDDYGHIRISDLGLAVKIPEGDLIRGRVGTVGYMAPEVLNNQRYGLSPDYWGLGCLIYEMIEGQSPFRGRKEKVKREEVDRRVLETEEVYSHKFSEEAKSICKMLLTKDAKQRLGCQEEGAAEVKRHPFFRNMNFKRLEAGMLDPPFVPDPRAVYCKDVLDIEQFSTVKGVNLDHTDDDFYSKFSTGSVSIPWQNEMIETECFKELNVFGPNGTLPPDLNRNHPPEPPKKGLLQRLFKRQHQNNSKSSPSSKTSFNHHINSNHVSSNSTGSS
row,Compound,GRK5 (IC50 μM)
1,CC1=C(C(=O)Nc2ccc3[nH]ncc3c2)C(c2ccc(F)c(CCC(=O)N(CC(C)C)C(C)C)c2)NC(=O)N1 (stereo not shown) [Compound 41],no sub-μM IC50 values
2,CCC(C)CN(CCO)C(=O)Cc1cc(C2NC(=O)NC(C)=C2C(=O)Nc2ccc3[nH]ncc3c2)ccc1F (stereo not shown) [Compound 44],no sub-μM IC50 values
3,CC1=C(C(=O)Nc2ccc3[nH]ncc3c2)C(c2ccc(F)c(CC(=O)N3CCCC(C(C)(C)C)CC3)c2)NC(=O)N1 (stereo not shown) [Compound 31],no sub-μM IC50 values
4,C#CCN(CC(C)C)C(=O)Cc1cc(C2NC(=O)NC(C)=C2C(=O)Nc2ccc3[nH]ncc3c2)ccc1F (stereo not shown) [Compound 38],no sub-μM IC50 values

# The remaining lines, values ahead:
row,GRK5 (IC50 μM),Compound
1,no sub-μM IC50 values,CC1=C(C(=O)Nc2ccc3[nH]ncc3c2)C(c2ccc(F)c(C(=O)NC(C)CCCC(C)C)c2)NC(=O)N1 (stereo not shown) [Compound 47]
2,no sub-μM IC50 values,CC1=C(C(=O)Nc2ccc3[nH]ncc3c2)C(c2ccc(F)c(C(=O)NC3CC4CCC3(C)C4(C)C)c2)NC(=O)N1 (stereo not shown) [Compound 32]
3,no sub-μM IC50 values,COCCCC1CCCCN1C(=O)c1cc(C2NC(=O)NC(C)=C2C(=O)Nc2ccc3[nH]ncc3c2)ccc1F (stereo not shown) [Compound 48]
